Where “and” joins values, the source holds several entries; their conditions need not be identical. Identical values can stand only once. Like-named read-outs stand apart in the source and are kept apart here.

The IC50 is the point on the concentration scale where inhibition reaches its midpoint. A word on the inhibition: it is the percentage by which the read-out fell short of the control.

One data set concerns CAT1. The following applies: HEK293 overexpressing CAT1; read-out: IC50, inhibition of CAT1-mediated cellular uptake of ADMA; cited from earlier work.
Data set [1] deals with [^3H]-ADMA transport across the blood-brain and blood-CSF barriers. The data set is described as follows: cross-inhibition, in situ perfusion: [^3H]-ADMA with 100 μM unlabelled L-arginine. It is filed as in vivo, mouse. The following applies: for inhibition of [^3H]-ADMA uptake: 100 μM unlabelled L-arginine; for inhibition at 100 µM: Mus musculus. How it is done:
(§1) Self-inhibition experiments were also performed. […] Cross-competition experiments were also performed.
(§2) The percentage change in the RTissue uptake values achieved in the absence or presence of an unlabelled inhibitor can be calculated by means of Eq 4.
(§3) %change=RTissue−RInhibition/RTissue×100 Eq 4
(§4) We define RInhibition as the RTissue uptake in the presence of an inhibitor in the artificial plasma.
(§5) A decrease in the uptake of radiolabelled solute in the presence of unlabelled inhibitor is indicative of a saturable influx transport system. Conversely, an increase in the uptake of radiolabelled solute in the presence of unlabelled inhibitor is indicative of a saturable efflux transport system.

In data set [2] the test system is [^3H]-arginine transport across the blood-brain and blood-CSF barriers. The data set is described as follows: self-inhibition, in situ perfusion: [^3H]-arginine with 100 μM unlabelled L-arginine. In kind it is in vivo, mouse. How it is done: as §1, §2, §3, §4, §5
The conditions of data set [3]: pH 7.4.
Method: (§6) The lipophilicity of the radiolabelled test molecules was also measured by means of an octanol:saline partition coefficient. […] Centrifugation separated the hydrophobic (octanol) phase and hydrophilic (saline) phase and 100 μL samples in triplicate were taken for radioactive liquid scintillation counting on a Tricarb 2900TR liquid scintillation counter (Perkin-Elmer; Boston, MA, USA). The partition coefficient was calculated as the ratio of radioactivity in the octanol phase to the radioactivity in the aqueous phase.
For data set [4] the following is noted: 500 μM; isolated incubated rat choroid plexus; cited from earlier work.
Data set [5] can be described thus: in situ brain/choroid plexus perfusion: CNS uptake of [^3H]-arginine, [^3H]-ADMA and [^14C]-sucrose (multiple-time and single-time uptake analysis). The following applies: for Kin: single-time point analysis, corrected for [^14C]-sucrose; for Kin / [^3H]-ADMA/ [^3H]-arginine, rate of uptake: 10-minute perfusion; for ability to cross the blood-brain and blood-CSF barriers: in situ perfusion; for Kp at 30 min, […] / Kp at […], […]: male, BALB/c, mouse.
Method: All animals used in procedures were adult male BALB/c mice (between 23 g and 25 g) sourced from Harlan Laboratories, Oxon, UK, unless otherwise stated.
Animals were weighed immediately before the administration of the anaesthetic to ensure correct dosage. Domitor® (medetomidine hydrochloride) and Vetalar® (ketamine) were both purchased from Harlan Laboratories (Cambridge, UK). All animals were terminally anaesthetised (2 mg/kg Domitor® and 150 mg/kg Vetalar® injected intraperitoneally), and a lack of self-righting and paw-withdrawal reflexes (as surrogate indicators of consciousness) thoroughly checked prior to and during all procedures. If needed, additional anaesthetic was administered via the same route. […] At the end of the in situ brain perfusion procedure the animal was killed by decapitated under non-recovery anaesthesia. Animals were heparinised with 100 units heparin (in 0.9% m/v NaCl(aq), Harlan Laboratories; Oxon, UK), administered via the intraperitoneal route prior to surgery.
The in situ brain/choroid plexus perfusion method is designed to directly perfuse the brain with artificial plasma via a cannula placed in the heart. Artificial plasma is prepared to mimic the ionic composition of blood, and transporter inhibitors can be added in known concentrations and delivered to the brain for defined periods of time.
The left ventricle of the heart was cannulated with a 25G x 10 mm butterfly-winged needle connected to the perfusion circuit. […] The right atrium of the heart was sectioned to allow outflow of the artificial plasma. […] Radiolabelled and unlabelled test molecules were infused into the inflowing artificial plasma for periods up to 30 minutes.
At the set perfusion time a CSF sample was taken by inserting a pulled glass micropipette connected to silicon tubing and a syringe into the cisterna magna. Gentle suction was applied, and CSF was withdrawn. Only clear CSF samples were processed and taken for analysis. Samples contaminated with blood were discarded. The animal was then decapitated and the brain removed. Specific brain samples including the circumventricular organs (CVOs) were taken using a Leica S4E L2 stereomicroscope (Leica; Buckinghamshire, UK). The brain samples included the frontal cortex, caudate nucleus, occipital cortex, hippocampus, hypothalamus, thalamus, pons and cerebellum. The CVOs included the choroid plexus, pituitary gland and pineal gland.
All samples (brain regions, capillary depletion brain homogenate, pellet and supernatant, CVOs, CSF and plasma samples) were solubilised in 0.5 mL tissue solubiliser (Solvable; Perkin-Elmer; Boston, MA, USA). After incubating the samples at room temperature for 48 h, 4 mL scintillation fluid (Lumasafe®; Perkin-Elmer; Boston, MA, USA) was added to each before vigorous vortexing.

Data set [6] is described as follows: capillary depletion analysis after in situ brain perfusion. In kind it is in vivo, mouse. To be noted: 10-minute perfusion; for Kin: single-time point analysis, corrected for [^14C]-sucrose. How it is done: The microvasculature within a sample of brain tissue can be separated from the brain parenchyma using capillary depletion analysis. Following perfusion, the remaining brain tissue after microdissection of the regions described above (typically 200–300 mg) underwent capillary depletion following a method modified for mouse. […]

The test system of another data set is hCMEC/D3 cells. To be noted: [^3H]-arginine 7 nM; hCMEC/D3 accumulation; cited from earlier work.
The nature of data set [7]: octanol:saline partition coefficient. The following applies: pH 7.4; for octanol-saline partition coefficient: mean ± SEM of 3 tubes.
Method: as §6
The mark [8] stands for this setting: 100μM unlabelled L-arginine, CSF, 10 minutes.

For the molecule `N=C(N)NCCC[C@H](N)C(=O)O` [L-arginine], the IC50 in the data set on CAT1 is 227 µM. For the same molecule, the “inhibition of [^3H]-ADMA uptake” value is “up to 78.6%” in data set [1] (CSF, pineal gland, choroid plexus and pituitary gland, 10 minutes); “up to 80.4%” in data set [1] (brain regions, 10 minutes). In data set [1] (setting [8]), the “effect on [^3H]-ADMA distribution” value is listed as “no effect”. Besides, in data set [1] (read-out: inhibition of [^3H]-ADMA distribution), the inhibition at 100 µM is ≤ 80.8%. Also, the “inhibition of [^3H]-arginine uptake” value in data set [2] (setting [8]) is recorded as 62.2%; in data set [2] (100μM unlabelled arginine, average of capillary depletion samples, 10 minutes), “approximately 56%”; in [2] (100μM unlabelled arginine, average of eight brain regions, 10-minute perfusion), “approximately 67%”. Besides, the “inhibition of [^3H]-arginine distribution” value in data set [2] (100μM unlabelled arginine, choroid plexus, 10 minutes) is recorded as 57.3%; in [2] (100μM unlabelled arginine, pineal gland, 10 minutes) it was 39.4%; in data set [2] (100μM unlabelled arginine, pituitary gland, 10 minutes), 48.1%. In data set [3], this molecule came in with an octanol-saline partition coefficient of 0.00149±0.00016.
Turning to `CNC(=N)NCCC[C@H](N)C(=O)O` [N^G-methyl-L-arginine], in data set [4], the “effect on [^3H]-arginine uptake” value is “can be inhibited”.
For `N=C(N)NCCC[C@H](N)C(=O)O` [[^3H]-arginine, reference compound], the Kin was 1.08 ± 0.24 µL/min/g in data set [5] (CSF); 5.40 ± 0.67 µL/min/g in [5] (Caudate nucleus); 5.10 ± 0.50 µL/min/g in data set [5] (Cerebellum); 5.84 ± 0.86 µL/min/g in data set [5] (Frontal Cortex); 4.72 ± 0.56 µL/min/g in [5] (Hippocampus); 7.26 ± 1.76 µL/min/g in [5] (Hypothalamus). Further, the Kin in data set [5] (Occipital Cortex) is 4.98 ± 0.72 µL/min/g; in data set [5] (Pons), 5.58 ± 0.97 µL/min/g; in data set [5] (Thalamus), 5.87 ± 1.07 µL/min/g; in data set [6] (Homogenate), 3.97 ± 0.67 µL/min/g; in data set [6] (Pellet) it was 0.70 ± 0.10 µL/min/g; in [6] (Supernatant), 2.35 ± 0.42 µL/min/g. Besides, in data set [5] (eight brain regions and capillary depletion samples), the “ability to cross the BBB in situ relative to [^3H]-ADMA” value is “more than two-fold in most cases”. Further, in data set [5], the “ability to cross the blood-brain and blood-CSF barriers” value was “can cross the blood-brain barrier (BBB) and the blood-CSF barrier”. Also, the Kp at 30 min, […] in data set [5] (CSF) is 1.2 ± 0.251; in [5] (frontal cortex) it was 1.77 ± 0.316; in data set [5] (pons), ~1.85. Moreover, the figures for the Kp at […], […] in data set [5] (CSF) and in [5] (frontal cortex) were 0.0441 ± 0.0141 and 0.29 ± 0.0403, respectively. In addition, in data set [5] (multiple-time uptake analysis over 30 minutes, data not shown), the “Vi relative to [^14C]-sucrose space in the same experiment” value was “up to 13 fold”. The “ability to cross brain capillary endothelial cell membranes compared to [^3H]-ADMA (38 nM)” value with hCMEC/D3 cells is “more than -three to -five-fold”.
With `N=C(N)NCCC[C@H](N)C(=O)O` [arginine], the inhibition at 100 µM in [1] (read-out: inhibition of [^3H]-ADMA (62.5 nM) transport) was 64.3 to 80.8%.
With [^3H]-ADMA [reference compound], in data set [7] (Tube A, B or C), the “octanol-saline partition coefficient, single tube” value was 0.00217 and 0.00237 and 0.00225. Also, the octanol-saline partition coefficient is 0.00226±0.00006 in data set [7] and 0.00226 in [7] (listed as 3H ADMA). Moreover, the “[^3H]-ADMA/ [^3H]-arginine, rate of uptake” value is on record as 249.5% in data set [5] (CSF); 44.6% in [5] (Caudate nucleus); 31.7% in data set [5] (Cerebellum); 42.7% in [5] (Frontal Cortex); 46.1% in data set [5] (Hippocampus); 41.9% in data set [5] (Hypothalamus). Besides, the “[^3H]-ADMA/ [^3H]-arginine, rate of uptake” value in data set [5] (Occipital Cortex) was found to be 45.2%; in [5] (Pons) it was 44.2%; in data set [5] (Thalamus) it was 35.8%; in [6] (Homogenate) it was 31.9%; in [6] (Pellet), 11.4%; in data set [6] (Supernatant) it was 36.6%. In [5] (CSF, […], data uncorrected for [^14C]-sucrose), the “uptake into the CSF (CSF to plasma)” value is recorded as “approximately 4%”. Further, the Kin is 2.70 ± 0.90 µL/min/g in [5] (CSF); 2.41 ± 0.29 µL/min/g in data set [5] (Caudate nucleus); 1.62 ± 0.19 µL/min/g in data set [5] (Cerebellum); 2.49 ± 0.35 µL/min/g in data set [5] (Frontal Cortex); 2.17 ± 0.17 µL/min/g in [5] (Hippocampus); 3.04 ± 0.30 µL/min/g in data set [5] (Hypothalamus). Also, the Kin came out at 2.25 ± 0.16 µL/min/g in [5] (Occipital Cortex); 2.46 ± 0.34 µL/min/g in data set [5] (Pons); 2.10 ± 0.17 µL/min/g in data set [5] (Thalamus); 1.27 ± 0.56 µL/min/g in data set [6] (Homogenate); 0.08 ± 0.20 µL/min/g in data set [6] (Pellet); 0.86 ± 0.16 µL/min/g in [6] (Supernatant). In addition, the “distribution into the choroid plexus (tissue to plasma)” value is reported as “approximately 40%” in [5] (30 minutes) and “approximately 240%” in [5] (peak at 10 minutes). For the same molecule, the “distribution (RBRAIN, tissue to plasma) corrected for [^14C]-sucrose” value is on record as 27.64±4.30% in data set [5] (frontal cortex, 20 minutes); 10.41±2.77% in data set [5] (frontal cortex, 30 minutes); 9.86±1.43% in data set [5] (frontal cortex, […]). In data set [5], the “ability to cross the blood-brain and blood-CSF barriers” value was “can cross the blood-brain barrier (BBB) and the blood-CSF barrier”. In addition, the CNS-to-blood efflux entry in data set [5] (multiple-time uptake studies, loss of linearity) was “significant CNS-to-blood efflux”.
